# Reference: patent publication US20210330648A1, “Pharmaceutical composition and use thereof” (ALPHALA CO., LTD., priority 2020, published 2021)
# Assays:
# [1] = indicates poor aqueous solubility but good membrane permeability; cited from earlier work
# [2] = In vitro dissolution testing, USP apparatus Type 2 (paddles); format: physicochemical; conditions: pH 6.8 phosphate buffer with 0.25% SDS, 900 mL, 75 rpm, 37° C.
# Protocol: In vitro dissolution testing was performed using an USP dissolution apparatus Type 2 (paddles) at 75 rpm (250 rpm at infinity) using 900 mL phosphate buffer pH 6.8 with 0.25% w/v SDS as the dissolution medium at 37 0.5° C.
# [3] = Solubility in buffers or solutions, LC-MS/MS; format: physicochemical; conditions: for Solubility (mg/ml): 37° C., 24 hrs
# Protocol: The method for measuring the solubilities of the formulations is briefly described. The test formulation was added into indicated buffers or solutions (ddH2O or 0.9% saline, pH 7.4) to the final concentration of 3 mg/mL, followed by sonicating for 30 mins. Next, the mixture was put into 37° C. water bath for 24 hrs. The mixture was mixed well by vortex and 1 mL of mixture was transferred into the 1.5 mL eppendorf tube, followed by centrifuging at 20817 xg for 30 mins. 10 μL of the supernatant was collected, and the concentration of the collected supernatant was determined by LC-MS/MS.
# [4] = Oral bioavailability / pharmacokinetics in Beagle dogs; format: in vivo; conditions: dog, plasma, pH 7.4, IV bolus, 40 to 50 mg, vehicle 0.1M NaHCO3 pH7.4, read-out: AUC (area under the curve) of IV bolus
# Protocol: Briefly, three healthy, research Beagle dogs, aged 4˜10 years and body weight 9˜12 kg were used. The pharmacokinetics experiments have intravenous bolus (IV bolus) and oral groups.
# For the IV bolus and oral groups, the dogs received the drugs after fasting for 4 hours, and the blood samples of the dogs were taken before administration. The blood samples were collected at pre-assigned times (10 min, 1 hr, 2 hr, 4 hr, 5 hr, 7 hr and 24 hr) after administration. The concentrations of the drug in plasma were determined with validated high performance liquid chromatography.
# The plasma concentration data were analyzed and modeled by the non-compartmental analysis to obtain pharmacokinetics parameters.
compound,measurement,setting,value
CCOC(=O)CCNC(=O)c1ccc(N[C@H](c2ccc(-c3nnc(-c4ccccc4)o3)cc2)C(C)C)cc1 [ALP001E],Biopharmaceutical Classification System (BCS) class,[1],Class II
same,In vitro dissolution,[2]; 0 min,0.00%
same,In vitro dissolution,[2]; 5 min,4.40%
same,In vitro dissolution,[2]; 10 min,3.69%
same,In vitro dissolution,[2]; 15 min,4.73%
same,In vitro dissolution,[2]; 20 min,2.87%
same,In vitro dissolution,[2]; 30 min,1.18%
same,In vitro dissolution,[2]; 45 min,1.26%
same,In vitro dissolution,[2]; 60 min,2.11%
same,In vitro dissolution,[2]; 90 min,2.77%
same,In vitro dissolution,[2]; 120 min,13.04%
same,Solubility (mg/ml),[3]; H2O (pH 7.0),<LOQ
same,Solubility (mg/ml),[3]; Saline (pH 7.4),<LOQ
same,solubility at 24 h,"[3]; USP pH 6.8 buffer, aqueous buffer, thermodynamic from solid, USP pH 6.8, 37° C.",0.44 µg/mL
CC(C)[C@H](Nc1ccc(C(=O)NCCC(=O)O)cc1)c1ccc(-c2nnc(-c3ccccc3)o2)cc1 [ALP001],AUC,[4],2180 ng·h/mL
